From patent US10363239B2, “Method for inhibiting growth of cancer cells” (Pain Therapeutics, Inc., priority 2013, dated 2019)
Where two headings read alike, the source gives them in different places.

Legend:
[1] = target: FLNA pentapeptide of SEQ ID NO: 1 (Bn-VAKGL) (Homo sapiens, UniProt P21333); experiment: FITC-NLX-based FLNA screening assay (inhibition of FITC-naloxone binding to Bn-VAKGL on streptavidin plates); conditions: for Percent inhibition of FITC-NLX binding (preliminary study): 100 nM frozen-stored FITC-NLX, average of two runs; for inhibition at 0.01 µM / inhibition at 0.1 µM / inhibition at 1 µM / Percent Binding Inhibition: 10 nM FITC-NLX
mu opiate receptor (MOR) = experiment: MOR agonist activity using [35S]GTPγS binding assay in striatal membranes; assay type: biochemical; conditions: for % DAMGO (0.1 μM) / % DAMGO (1 μM): relative to DAMGO; for % DAMGO + BFNA: 1 μM compound + β-FNA, relative to DAMGO + BFNA
Protocol: To assess the mu opiate receptor (MOR) agonist activity of positive compounds from the FLNA screening, compounds were tested in a [^35S]GTPγS binding assay using striatal membranes. […] This assay measures a functional consequence of receptor occupancy at one of the earliest receptor-mediated events. The assay permits traditional pharmacological parameters of potency, efficacy and antagonist affinity, with the advantage that agonist measures are not subjected to amplification or other modulation that may occur when analyzing parameters further downstream of the receptor.
Thus, striatal tissue was homogenized in 10 volumes of ice cold 25 mM HEPES buffer, pH 7.4, which contained 1 mM EGTA, 100 mM sucrose, 50 μg/ml leupeptin, 0.04 mM PMSF, 2 μg/ml soybean trypsin inhibitor and 0.2% 2-mercaptoethanol. The homogenates were centrifuged at 800×g for 5 minutes and the supernatants were centrifuged at 49,000×g for 20 minutes. The resulting pellets were suspended in 10 volume of reaction buffer, which contained 25 mM HEPES, pH 7.5, 100 mM NaCl, 50 μg/ml leupeptin, 2 μg/ml soybean trypsin inhibitor, 0.04 mM PMSF and 0.02% […].
The resultant striatal membrane preparation (200 μg) was admixed and maintained (incubated) at 30° C. for 5 minutes in reaction buffer as above that additionally contained 1 mM MgCl2 and 0.5 nM [^35S]GTPγS (0.1 μCi/assay, PerkinElmer Life and Analytical Sciences) in a total volume of 250 μl and continued for 5 minutes in the absence or presence of 0.1-10 μM of an assayed compound of interest. The reaction was terminated by dilution with 750 μl of ice-cold reaction buffer that contained 20 mM MgCl2 and 1 mM EGTA and immediate centrifugation at 16,000×g for 5 minutes.
The resulting pellet was solubilized by sonicating for 10 seconds in 0.5 ml of immunoprecipitation buffer containing 0.5% digitonin, 0.2% sodium cholate and 0.5% NP-40. Normal rabbit serum (1 μl) was added to 1 ml of lysate and incubated at 25° C. for 30 minutes. Nonspecific immune complexes were removed by incubation with 25 μl of protein A/G-conjugated agarose beads at 25° C. for 30 minutes followed by centrifugation at 5,000×g at 4° C. for 5 minutes. The supernatant was divided and separately incubated at 25° C. for 30 minutes with antibodies raised against Gαo proteins (1:1,000 dilutions).
The immunocomplexes so formed were collected by incubation at 25° C. for 30 minutes with 40 μl of agarose-conjugated protein A/G beads and centrifugation at 5,000×g at 4° C. for 5 minutes. The pellet was washed and suspended in buffer containing 50 mM Tris-HCl, pH 8.0, and 1% NP-40. The radioactivity in the suspension was determined by liquid scintillation spectrometry.

[2] = Series C-2, 0.1 μM compound, [35S]GTPγS binding to Gαo, striatal membranes
[3] = Series C-2, 1 μM compound + 1 μM β-FNA
[4] = Series C-2, 1 μM compound, [35S]GTPγS binding to Gαo, striatal membranes
[5] = read-out: Percent Binding Inhibition, FLNA-binding compound 0.01 μM
[6] = read-out: Percent Binding Inhibition, FLNA-binding compound 0.1 μM
[7] = read-out: Percent Binding Inhibition, FLNA-binding compound 1 μM

What does the source list for `C=CCN1CC[C@]23c4c5ccc(O)c4O[C@H]2C(=O)CC[C@]3(O)[C@H]1C5` [(+) NLX]?
Percent inhibition of FITC-NLX binding (preliminary study) ([1]; compound 0.1 nM): 22.7%; Percent inhibition of FITC-NLX binding (preliminary study) ([1]; compound 1 nM): 22.8%; Percent inhibition of FITC-NLX binding (preliminary study) ([1]; compound 10 nM): 23.1%; Percent inhibition of FITC-NLX binding (preliminary study) ([1]; compound 100 nM): 22.8%; Percent inhibition of FITC-NLX binding (preliminary study) ([1]; compound 1 µM): 39.8%

For `CN1CC[C@]23c4c5ccc(O)c4O[C@H]2[C@@H](O)C=C[C@H]3[C@H]1C5` [morphine, reference compound], which “Inhibition of 10 nM FITC-conjugated NLX binding to biotinylated FLNA pentapeptide (FIG. 28)” value ([1]; 10 μM) is on record?
The value was “minimal binding inhibition”.

What does the source list for `CC(=O)c1ccc(S(=O)(=O)N2CCC3(CC2)NCCO3)cc1` [Compound C0055]?
inhibition at 0.01 µM ([1]; FLNA-binding compound 0.01 μM, read-out: Percent Binding Inhibition): 29%; inhibition at 0.1 µM ([1]; FLNA-binding compound 0.1 μM, read-out: Percent Binding Inhibition): 34.9%; inhibition at 1 µM ([1]; FLNA-binding compound 1 μM, read-out: Percent Binding Inhibition): 39.5%

Which results are given for `O=C1CN(Cc2ccccc2)C2(CCN(S(=O)(=O)c3cc(Cl)cc(Cl)c3O)CC2)N1` [Compound C0138M]?
% DAMGO (0.1 μM) (mu opiate receptor (MOR); Series C-1, 0.1 μM compound): 86.3%; Concentration of FLNA-Binding Compound as Agonist 0.1 μM (mu opiate receptor (MOR); Series C-1, 0.1 μM compound, [35S]GTPγS binding to Gαo, striatal membranes): 126.9%; Concentration of FLNA-Binding Compound as Agonist 1 μM + BFNA (mu opiate receptor (MOR); Series C-1, 1 μM compound + 1 μM β-FNA): 51.5%; % DAMGO + BFNA (mu opiate receptor (MOR); Series C-1): 131.0%; % DAMGO (1 μM) (mu opiate receptor (MOR); Series C-1, 1 μM compound): 90.9%; Concentration of FLNA-Binding Compound as Agonist 1 μM (mu opiate receptor (MOR); Series C-1, 1 μM compound, [35S]GTPγS binding to Gαo, striatal membranes): 183.9%

Which “% DAMGO (0.1 μM)” value (mu opiate receptor (MOR); Series C-2, 0.1 μM compound) does the source give for `O=S(=O)(c1ccccc1Oc1ccccc1)N1CCC2(CC1)NCCO2` [Compound C0149M-2] here?
The value was 122.0%.

And the “MOR agonist activity, percent [35S]GTPγS binding at the stated compound concentration” value (from here on “MOR agonist activity, percent”) (mu opiate receptor (MOR); [2])?
The value was 209.8%.

What about the “MOR agonist activity, percent” value (mu opiate receptor (MOR); [3]) of the same molecule?
Its value is 93.4%.

What about the “% DAMGO + BFNA” value (mu opiate receptor (MOR); Series C-2) of the same molecule?
Its value is 102.3%.

And the “% DAMGO (1 μM)” value (mu opiate receptor (MOR); Series C-2, 1 μM compound)?
The value was 124.8%.

And the “MOR agonist activity, percent” value (mu opiate receptor (MOR); [4])?
Its value is 406.7%.

What does the source list for `C=CCN1CC[C@]23c4c5ccc(O)c4O[C@H]2C(=O)CC[C@@]3(O)[C@H]1C5` [Naloxone Control, naloxone, reference compound]?
inhibition at 0.01 µM [1, 5]: 39.9%; inhibition at 0.1 µM [1, 6]: 46.3%; inhibition at 1 µM [1, 7]: 50.9%

`C=CCN1CC[C@]23c4c5ccc(O)c4O[C@H]2C(=O)CC[C@@]3(O)[C@H]1C5` [NLX, naloxone, reference compound] was tested. Which “Inhibition of 10 nM FITC-conjugated NLX binding to biotinylated FLNA pentapeptide (FIG. 28)” value ([1]; 1 μM) did it give?
The value was “inhibit well”.

`COc1c2c(cc3c1C(CC(=O)CCc1ccccc1)[N+](C)(C)CC3)OCO2` (stereo not shown) [Compound B0015] was tested. Which inhibition at 0.01 µM [1, 5] did it give?
The inhibition at 0.01 µM was 30.4%.

What about the inhibition at 0.1 µM [1, 6] of the same molecule?
The inhibition at 0.1 µM was 35.3%.

What about the inhibition at 1 µM [1, 7] of the same molecule?
The inhibition at 1 µM was 42.3%.

For `COc1ccc(OCC(O)CN2CCc3ccccc32)cc1` (stereo not shown) [Compound A0069], which “Percent Binding Inhibition” value ([1]; FLNA-binding compound 0.01 μM) is on record?
The value was 32.0%.

What about the “Percent Binding Inhibition” value ([1]; FLNA-binding compound 0.1 μM) of the same molecule?
The value was 40.4%.

And the “Percent Binding Inhibition” value ([1]; FLNA-binding compound 1 μM)?
Its value is 46.1%.

How did the “% DAMGO (0.1 μM)” value (mu opiate receptor (MOR); Series C-2, 0.1 μM compound) turn out when `COc1ccc(NC(=O)N2CCC3(CC2)NCCO3)cc1` [Compound C0151M-2] was run?
The value was 201.6%.

What about the “MOR agonist activity, percent” value (mu opiate receptor (MOR); [2]) of the same molecule?
The value was 346.8%.

What about the “MOR agonist activity, percent” value (mu opiate receptor (MOR); [3]) of the same molecule?
The value was 212.8%.

And the “% DAMGO + BFNA” value (mu opiate receptor (MOR); Series C-2)?
Its value is 233.1%.

And the “% DAMGO (1 μM)” value (mu opiate receptor (MOR); Series C-2, 1 μM compound)?
The value was 122.0%.

And the “MOR agonist activity, percent” value (mu opiate receptor (MOR); [4])?
Its value is 397.6%.
